In patent US5304631A, “Synthetic helizyme enzymes” (University of Colorado Foundation, Inc., priority 1990, dated 1994):

How the values were obtained:
Type in all cases: biochemical
[1] = tested on: monomeric Chymohelizyme 1; assay: Inhibition of substrate hydrolysis by Chymohelizyme 1 by specific chymotrypsin inhibitors
Source text: Inclusion of indole at a concentration equal to that of the substrate ZTONP caused approximately 70% inhibition of substrate hydrolysis.

[2] = Hydrolysis of ATEE (esterase activity), followed by titration; conditions: pH 8.1, 0.05 molar sodium chloride solution
Protocol: Hydrolysis of ATEE at pH 8.1 in 0.05 molar sodium chloride solution followed classical Michaelis-Menten kinetics; kM=1.0 mM and kcat=0.042/sec(corresponding values for chymotrypsin are 0.7 mM; 3.0/sec), showing an activity approximately 1% that of chymotrypsin for this substrate.
Hydrolysis of BTEE and ZTONP were performed as described (Meth. Enzymol. volume XIX, Academic Press, New York, 1970, pp. 38-41). The progress of the reaction was followed spectrophotometrically. Progress of the hydrolysis of ATEE was followed by titration.

[3] = Hydrolysis of ZTONP (esterase activity), followed spectrophotometrically; conditions: initial turnover number
Protocol: Kinetic studies of purified Chymohelizyme 1 were performed using ATEE, BTEE or ZTONP as the substrate.
The progress of the reaction was followed spectrophotometrically. Progress of the hydrolysis of ATEE was followed by titration.

Row | Compound | inhibition of hydrolysis of substrates by monomeric Chymohelizyme 1 [1] | inhibition of substrate hydrolysis ([1]; inhibitor at a concentration equal to that of the substrate ZTONP) | Km [2] [µM] | kcat [2] [s⁻¹] | turnover number [3] [s⁻¹]
1 | c1ccc2[nH]ccc2c1 [indole] | inhibited | approximately 70% |  |  | 
2 | Cc1ccc(O)cc1 [p-cresol] | inhibited |  |  |  | 
3 | chymotrypsin |  |  | 700 | 3.0 | 300
